Measurements: article PMC10753557, “Design and Evaluation of Synthesized Pyrrole Derivatives as Dual COX-1 and COX-2 Inhibitors Using FB-QSAR Approach” (ACS Omega, 2023)

What was measured:
[1] = biological target: T1, COX-2 (Homo sapiens, UniProt P35354); assay: COX-2 fluorometric inhibitor screening kit (BioVision); format: biochemical
T1 construct: purchased BioVision
T1 sequence (P35354 18-604): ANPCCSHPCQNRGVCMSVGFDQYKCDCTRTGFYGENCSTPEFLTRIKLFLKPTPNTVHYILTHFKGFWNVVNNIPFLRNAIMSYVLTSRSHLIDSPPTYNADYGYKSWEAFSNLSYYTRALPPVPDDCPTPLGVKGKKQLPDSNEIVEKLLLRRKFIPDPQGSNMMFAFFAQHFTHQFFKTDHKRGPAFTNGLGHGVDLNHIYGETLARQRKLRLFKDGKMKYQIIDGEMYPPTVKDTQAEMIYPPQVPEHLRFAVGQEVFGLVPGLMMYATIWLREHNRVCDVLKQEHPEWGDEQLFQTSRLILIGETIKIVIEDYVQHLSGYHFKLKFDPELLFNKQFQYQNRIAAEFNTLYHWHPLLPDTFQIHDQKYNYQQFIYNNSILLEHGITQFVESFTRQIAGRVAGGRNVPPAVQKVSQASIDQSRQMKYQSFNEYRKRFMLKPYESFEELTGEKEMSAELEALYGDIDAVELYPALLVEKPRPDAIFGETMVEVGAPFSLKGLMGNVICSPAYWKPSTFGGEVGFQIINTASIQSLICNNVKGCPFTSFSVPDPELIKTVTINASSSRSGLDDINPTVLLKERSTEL
Protocol: (§1) To conduct the inhibition assay, the kit components were prepared as follows: The COX-1/COX-2 enzyme solutions were created by reconstituting the lyophilized powder with 110 μL of ddH2O. A diluted COX cofactor was formed by combining a COX assay buffer (398 μL) and a COX cofactor (2 μL). The arachidonic acid/NaOH solution was diluted with 5 μL of arachidonic acid, 5 μL of NaOH, and 90 μL of ddH2O. These solutions were combined to generate the reaction mixture (80 μL) for each well, consisting of the COX assay buffer (76 μL), the COX probe (1 μL), the diluted COX cofactor (2 μL), and the COX-1/COX-2 enzyme solution (1 μL). Test compounds (10 μL) were added, followed by incubation for 5–10 min at 25 °C. To […] the reaction, 10 μL of diluted arachidonic acid/NaOH solution was added. […] The assay was performed in quadruplicate with a blank and control, testing all inhibitor concentrations. The mean ± standard deviation (SD) of the percentage inhibition results were calculated, and IC50 values were determined using GraphPad PRISM software (version 5.0) by plotting the percentage inhibition against the log concentration. Additionally, the selectivity index (SI) was calculated by dividing IC50(COX-1) by IC50(COX-2).

[2] = biological target: T2, COX-1 (Ovis aries, UniProt P05979); assay: COX-1 fluorometric inhibitor screening kit (BioVision); format: biochemical
T2 construct: purchased
T2 sequence (P05979 25-600): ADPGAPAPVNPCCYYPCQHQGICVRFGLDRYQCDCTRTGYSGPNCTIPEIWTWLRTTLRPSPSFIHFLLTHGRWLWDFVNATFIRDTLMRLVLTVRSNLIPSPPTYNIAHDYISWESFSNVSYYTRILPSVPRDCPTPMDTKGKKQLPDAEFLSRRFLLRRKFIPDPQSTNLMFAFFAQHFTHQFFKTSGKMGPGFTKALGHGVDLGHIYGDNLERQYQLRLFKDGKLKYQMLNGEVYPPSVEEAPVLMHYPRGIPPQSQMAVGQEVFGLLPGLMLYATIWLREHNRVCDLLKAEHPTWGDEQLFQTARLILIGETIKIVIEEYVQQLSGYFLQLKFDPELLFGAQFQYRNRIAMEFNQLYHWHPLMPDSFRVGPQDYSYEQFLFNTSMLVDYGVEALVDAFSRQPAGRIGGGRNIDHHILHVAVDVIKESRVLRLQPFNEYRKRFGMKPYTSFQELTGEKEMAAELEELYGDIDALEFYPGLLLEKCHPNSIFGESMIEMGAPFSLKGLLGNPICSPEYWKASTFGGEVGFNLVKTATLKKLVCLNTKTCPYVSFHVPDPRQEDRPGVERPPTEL
Protocol: as §1

[3] = 1 μM compound, mean ± SD, quadruplicate
[4] = 10 μM compound, mean ± SD, quadruplicate

inhibition at 1 µM ([1]; read-out: COX-2% Inhibition 1 μM) | inhibition at 10 µM ([1]; read-out: COX-2% Inhibition 10 μM) | COX-2% Inhibition 1 μM [1, 3] | COX-2% Inhibition 10 μM [1, 4] | experimental activity on COX-2 (pIC50) ([1]; BioVision's kit protocol) | COX subtype selectivity ([1]; COX-1 vs COX-2, classification in conclusions) | IC50 ([1]; fluorometric kit) | COX-1% Inhibition 1 μM [2, 3] | COX-1% Inhibition 10 μM [2, 4] | experimental activity on COX-1 (pIC50) ([2]; BioVision's kit protocol) | IC50 ([2]; fluorometric kit) | SMILES
89.6 ± 1.05% | 97.8 ± 1.21% | – | – | – | – | – | – | – | – | – | CS(=O)(=O)Nc1ccc([N+](=O)[O-])cc1Oc1ccccc1 [nimesulide, reference compound]
– | – | 83.033 ± 1.878% | 90.967 ± 2.022% | 6.7258 | nonselective inhibitors | 188 ± 8 nM | 84.517 ± 2.036% | 92.366 ± 2.731% | 6.93 | 117 ± 5 nM | CCOC(=O)c1cc(-c2c(OC)cccc2OC)n(CC(=O)O)c1C [Compound 4g]
